Measurements as given in the supplement of paper PMC13380429.

Columns and labels:
[1] = system: A549-ACE2 infected with SARS-CoV-2; assay: cell count relative to DMSO; higher = less toxic; conditions: 24 h
Caco-2 [2] = assay: cell viability relative to DMSO; higher = less toxic; conditions: 72 h
Calu-3 [3] = assay: as above; conditions: 72 h
HepG2 [4] = assay: as above; conditions: 72 h
U2OS [5] = assay: as above; conditions: 72 h
Vero E6 [6] = assay: as above; conditions: 72 h
[7] = system: A549-ACE2 infected with SARS-CoV-2; assay: SARS-CoV-2 infection rate relative to DMSO; higher = more infection; conditions: 24 h
A549-ACE2 [8] = assay: drug-induced phospholipidosis relative to tamoxifen; higher = more phospholipidosis
[9] = system: A549-ACE2 infected with SARS-CoV-2; assay: morphology score (similarity to uninfected cells); higher = more like uninfected cells; conditions: 24 h
Caco-2 [10] = assay: relative viability EC50 (midpoint between 100% and the lowest measured viability); higher = less toxic; conditions: 72 h
Calu-3 [11] = assay: as above; conditions: 72 h
U2OS [12] = assay: as above; conditions: 72 h
Vero E6 [13] = assay: as above; conditions: 72 h
Caco-2 [14] = assay: drug sensitivity score (DSS) for viability; higher = more toxic; extreme values may be limits of the assay; conditions: 72 h
Calu-3 [15] = assay: as above; conditions: 72 h
HepG2 [16] = assay: as above; conditions: 72 h
U2OS [17] = assay: as above; conditions: 72 h
Vero E6 [18] = assay: as above; conditions: 72 h
A549-ACE2 [19] = assay: phospholipidosis EC50; higher = less potent phospholipidosis inducer
HepG2 [20] = assay: relative viability EC50 (midpoint between 100% and the lowest measured viability); higher = less toxic; conditions: 72 h

CC(=O)c1cc([N+](=O)[O-])c(Sc2ccc(F)cc2F)s1
Conditions | SARS-CoV-2 infection rate, [7] [%] | cell count, [1] [%] | cell viability, Caco-2 [2] [%] | cell viability, Calu-3 [3] [%] | cell viability, HepG2 [4] [%] | cell viability, U2OS [5] [%] | cell viability, Vero E6 [6] [%] | morphology score, [9]
1 nM | – | – | 98 | 91 | 110 | 95.3 | 108 | –
10 nM | – | – | 96.6 | 95.3 | 105 | 99.3 | 98.8 | –
100 nM | – | – | 103 | 105 | 106 | 95.2 | 101 | –
0.3 µM | 98 | 99 | – | – | – | – | – | 0.06
1000 nM | – | – | 87.4 | 98.6 | 100 | 101 | 98.1 | –
3 µM | 106 | 100 | – | – | – | – | – | -0.18
10 µM | 71 | 81 | – | – | – | – | – | 0.38
10000 nM | – | – | 31.8 | 101 | 58.5 | 80 | 95.6 | –
30 µM | 55 | 58 | – | – | – | – | – | 0.17

drug-induced phospholipidosis [%], A549-ACE2 [8]
Conditions | 0.3 µM | 0.833333 µM | 3.33333 µM | 6.66667 µM | 30 µM
24 h | 3.19 | -2.16 | 10.1 | 11.8 | 19.3
48 h | 2.73 | -1.61 | 2.36 | 16.5 | –
72 h | 0.714 | -1.68 | -2.13 | 11.8 | 23.5

Conditions | drug sensitivity score | relative viability EC50 [µM]
Caco-2 [10] | – | 1.81
Caco-2 [14] | 5.8 | –
Calu-3 [11] | – | > 10
Calu-3 [15] | 0 | –
HepG2 [16] | 2.1 | –
U2OS [12] | – | > 10
U2OS [17] | 0.5 | –
Vero E6 [13] | – | > 10
Vero E6 [18] | 0 | –

CC(C)c1ccc(C(=O)c2cccs2)c(SCCCCCCCCN(C)C)n1
Conditions | SARS-CoV-2 infection rate [%] | cell count [%] | cell viability [%] | morphology score | phospholipidosis EC50 [µM]
A549-ACE2 [19], 24 h | – | – | – | – | 2.88
A549-ACE2 [19], 48 h | – | – | – | – | 2.9
A549-ACE2 [19], 72 h | – | – | – | – | 4.11
Caco-2 [2], 1 nM | – | – | 106 | – | –
Caco-2 [2], 10 nM | – | – | 91.6 | – | –
Caco-2 [2], 100 nM | – | – | 97.6 | – | –
Caco-2 [2], 1000 nM | – | – | 94.6 | – | –
Caco-2 [2], 10000 nM | – | – | 47.3 | – | –
Calu-3 [3], 1 nM | – | – | 101 | – | –
Calu-3 [3], 10 nM | – | – | 120 | – | –
Calu-3 [3], 100 nM | – | – | 97.4 | – | –
Calu-3 [3], 1000 nM | – | – | 106 | – | –
Calu-3 [3], 10000 nM | – | – | 27.9 | – | –
HepG2 [4], 1 nM | – | – | 97.9 | – | –
HepG2 [4], 10 nM | – | – | 94.6 | – | –
HepG2 [4], 100 nM | – | – | 109 | – | –
HepG2 [4], 1000 nM | – | – | 103 | – | –
HepG2 [4], 10000 nM | – | – | 29.4 | – | –
U2OS [5], 1 nM | – | – | 99.4 | – | –
U2OS [5], 10 nM | – | – | 95.9 | – | –
U2OS [5], 100 nM | – | – | 101 | – | –
U2OS [5], 1000 nM | – | – | 98.9 | – | –
U2OS [5], 10000 nM | – | – | 71.6 | – | –
Vero E6 [6], 1 nM | – | – | 100 | – | –
Vero E6 [6], 10 nM | – | – | 99.8 | – | –
Vero E6 [6], 100 nM | – | – | 101 | – | –
Vero E6 [6], 1000 nM | – | – | 94.6 | – | –
Vero E6 [6], 10000 nM | – | – | 78.4 | – | –
[1], 0.1 µM | – | 98 | – | – | –
[1], 0.3 µM | – | 101 | – | – | –
[1], 1 µM | – | 111 | – | – | –
[1], 3 µM | – | 123 | – | – | –
[7], 0.1 µM | 99 | – | – | – | –
[7], 0.3 µM | 95 | – | – | – | –
[7], 1 µM | 74 | – | – | – | –
[7], 3 µM | 23 | – | – | – | –
[9], 0.1 µM | – | – | – | -0.04 | –
[9], 0.3 µM | – | – | – | 0.17 | –
[9], 1 µM | – | – | – | 0.57 | –
[9], 3 µM | – | – | – | 0.88 | –

drug-induced phospholipidosis [%], A549-ACE2 [8]
Conditions | 0.3 µM | 0.833333 µM | 3.33333 µM | 6.66667 µM | 10 µM | 30 µM
24 h | 6.35 | 10.2 | 76.1 | 105 | 129 | 33.4
48 h | 4.72 | 6.5 | 79.5 | 112 | 127 | –
72 h | 0.841 | 8.09 | 57.5 | 114 | 131 | –

Conditions | drug sensitivity score | relative viability EC50 [µM]
Caco-2 [10] | – | 2.32
Caco-2 [14] | 3.7 | –
Calu-3 [11] | – | 3.55
Calu-3 [15] | 3.6 | –
HepG2 [16] | 3.6 | –
HepG2 [20] | – | 3.39
U2OS [17] | 1.3 | –
Vero E6 [13] | – | > 10
Vero E6 [18] | 1.4 | –

COc1cc(-c2cc(-c3cccc(O)c3)cnc2N)cc(OC)c1OC
Conditions | SARS-CoV-2 infection rate, [7] [%] | cell count, [1] [%] | cell viability, Caco-2 [2] [%] | cell viability, Calu-3 [3] [%] | cell viability, HepG2 [4] [%] | cell viability, U2OS [5] [%] | cell viability, Vero E6 [6] [%] | morphology score, [9]
1 nM | – | – | 101 | 87.7 | 94.1 | 95.8 | 99.7 | –
10 nM | – | – | 103 | 93.6 | 94.6 | 93.7 | 103 | –
100 nM | – | – | 105 | 92.3 | 93.8 | 101 | 97.4 | –
0.3 µM | 101 | 100 | – | – | – | – | – | 0.01
1000 nM | – | – | 101 | 87.6 | 98.4 | 91 | 106 | –
3 µM | 103 | 99 | – | – | – | – | – | 0.39
10 µM | 93 | 105 | – | – | – | – | – | 0.31
10000 nM | – | – | 79.4 | 84.6 | 74.8 | 64.5 | 99 | –
30 µM | 91 | 84 | – | – | – | – | – | 0.16

drug-induced phospholipidosis [%], A549-ACE2 [8]
Conditions | 0.3 µM | 0.833333 µM | 3.33333 µM | 6.66667 µM | 10 µM | 30 µM
24 h | 4 | 3.08 | 6.21 | 12 | 15.9 | 47.9
48 h | 3.78 | 1.52 | 1.5 | 4.27 | 9.43 | 62.2
72 h | 4.57 | 0.15 | 0.0757 | 1.61 | 5.86 | 65.7

Conditions | drug sensitivity score | relative viability EC50 [µM]
Caco-2 [10] | – | > 10
Caco-2 [14] | 0.6 | –
Calu-3 [11] | – | > 10
Calu-3 [15] | 0 | –
HepG2 [16] | 1.2 | –
U2OS [17] | 3.1 | –
Vero E6 [13] | – | > 10
Vero E6 [18] | 0 | –

COc1cc(COc2cc(N)c(Cl)cc2C(=O)CCC2CCN(CCNS(C)(=O)=O)CC2)cc(OC)c1
Conditions | SARS-CoV-2 infection rate [%] | cell count [%] | cell viability [%] | morphology score | phospholipidosis EC50 [µM]
A549-ACE2 [19], 24 h | – | – | – | – | 10.8
Caco-2 [2], 1 nM | – | – | 107 | – | –
Caco-2 [2], 10 nM | – | – | 102 | – | –
Caco-2 [2], 100 nM | – | – | 95.9 | – | –
Caco-2 [2], 1000 nM | – | – | 110 | – | –
Caco-2 [2], 10000 nM | – | – | 88.3 | – | –
Calu-3 [3], 1 nM | – | – | 99 | – | –
Calu-3 [3], 10 nM | – | – | 106 | – | –
Calu-3 [3], 100 nM | – | – | 94.6 | – | –
Calu-3 [3], 1000 nM | – | – | 105 | – | –
Calu-3 [3], 10000 nM | – | – | 98.6 | – | –
HepG2 [4], 1 nM | – | – | 95 | – | –
HepG2 [4], 10 nM | – | – | 102 | – | –
HepG2 [4], 100 nM | – | – | 98.8 | – | –
HepG2 [4], 1000 nM | – | – | 92.5 | – | –
HepG2 [4], 10000 nM | – | – | 73.1 | – | –
U2OS [5], 1 nM | – | – | 98.8 | – | –
U2OS [5], 10 nM | – | – | 96.2 | – | –
U2OS [5], 100 nM | – | – | 100 | – | –
U2OS [5], 1000 nM | – | – | 101 | – | –
U2OS [5], 10000 nM | – | – | 58.7 | – | –
Vero E6 [6], 1 nM | – | – | 96.8 | – | –
Vero E6 [6], 10 nM | – | – | 97.8 | – | –
Vero E6 [6], 100 nM | – | – | 93.3 | – | –
Vero E6 [6], 1000 nM | – | – | 96.1 | – | –
Vero E6 [6], 10000 nM | – | – | 29.4 | – | –
[1], 0.1 µM | – | 97 | – | – | –
[1], 0.3 µM | – | 102 | – | – | –
[1], 1 µM | – | 105 | – | – | –
[1], 3 µM | – | 118 | – | – | –
[7], 0.1 µM | 106 | – | – | – | –
[7], 0.3 µM | 102 | – | – | – | –
[7], 1 µM | 93 | – | – | – | –
[7], 3 µM | 69 | – | – | – | –
[9], 0.1 µM | – | – | – | -0.18 | –
[9], 0.3 µM | – | – | – | -0.13 | –
[9], 1 µM | – | – | – | 0.08 | –
[9], 3 µM | – | – | – | 0.56 | –

drug-induced phospholipidosis [%], A549-ACE2 [8]
Conditions | 0.3 µM | 0.833333 µM | 3.33333 µM | 6.66667 µM | 10 µM | 30 µM
24 h | 7 | -3.07 | 1.58 | 15.2 | 28.5 | 59.3
48 h | 8.74 | 0.25 | 7.6 | 19.6 | 29.2 | –
72 h | 9.15 | 2.57 | 12.6 | 21.2 | 34.8 | –

Conditions | drug sensitivity score | relative viability EC50 [µM]
Caco-2 [10] | – | > 10
Caco-2 [14] | 0 | –
Calu-3 [11] | – | > 10
Calu-3 [15] | 0 | –
HepG2 [16] | 2.1 | –
U2OS [17] | 2 | –
Vero E6 [13] | – | 2.74
Vero E6 [18] | 4.4 | –
